Molecules are shown by their SMILES. Entries after “also recorded” stand apart in the source; their conditions may differ.

This note sets out measurements from patent US20250093329A1, “SCREENING OF COMPOUNDS” (THE UNIVERSITY OF TULSA, priority 2022, published 2025).

One assay deals with each cell line tested. Kind of assay: ATP levels by CellTiter-Glo, all cell lines of Table 1 taken together. Format: cell-based. Conditions: Table 1 cell lines. An excerpt: A wide variety of ATP luminescing detection reagents are available commercially. So long as the reagent produces a luminescence in the presence of ATP, the reagent will be suitable for use in the present method. Suitable reagents include but are not limited to any ATP dependent luciferase such as but not limited to firefly luciferase, other modified luciferase based reagents, i.e. luciferase derivatives. According to the rapid method for determining the anti-cancer activity of a compound, a sample of living cells is distributed across a number of testing wells. Typically, 96-well plates are used; however, the number of wells is not critical to the current method. When using a 96-well plate the number of living cells will commonly be about 20,000. […] The sample wells contain a cell growth medium to promote cell health and growth and an additive to prevent bacterial contamination of the wells. One common example of the cell growth medium is DMEM with 10% FBS as described above. One example of the additive to prevent bacterial contamination is a solution of penicillin G and streptomycin referred to commonly as Pen-Strep. The Pen-Strep solution typically contains 5000 units of penicillin G and 5000 micrograms of streptomycin. Thus, the rapid determination of anti-cancer compounds can be carried out using the following method. • The desired number of cells are distributed in a 96-well plate containing 100 μL DMEM plus 10% FBS with optional Pen-Strep. • After 24 hours, cells are treated with the compound of interest or a 5% solution of dimethyl sulfoxide (DMSO) in water as a control. • The time period for exposure to the compound of interest and the DMSO control will vary depending on the luminescing detection reagent. However, when using a commercially available reagent such as resazurin (CellTiter Blue commercially available from Promega) or luciferase or a luciferase derivative (CellTiter Glo commercially available from Promega) the time period can be readily determined with reference to literature from the commercial source. Other luminescing detection agents can also be used with minimal experimentation to determine the desired compound exposure time. • Upon completion of the time period for exposure to the compound of interest or the DMSO, 10 μL of the luminescing detection reagent is added and the cells are lysed by a detergent added along with the luminescing detection reagent. • When the reagent is resazurin, as found in CellTiter-Blue the time period for exposure to the compound of interest and the DMSO will be about 24 hours. • When the reagent is luciferase or a luciferase derivative as found in CellTiter-Glo the time period for exposure to the compound of interest and the DMSO will be about 30 minutes to four hours. • The luminescing detection reagent is added over a period of time. • When using resazurin, the time period for the addition of the 10 μl volume takes place over a period of about one to four hours. • When using luciferase or a luciferase derivative, the time period is about 3 minutes to about 7 minutes, typically about 5 minutes. • During the time period of addition of the luminescing detection reagent the resulting luminescence is measured using conventional methods and devices. […] If the compound of interest deactivates the cell, then the cell produces less or no ATP. As a result, the cells in the well treated with the compound of interest will have a lower luminescence value as compared to the cells in wells treated with DMSO. • The value for the cells treated with the compound of interest is reported as a “percent of control” (POC) value. The determination of POC is calculated by dividing the averaged response from duplicate wells containing the cells as treated with the compound of interest by the average response of duplicate control wells which contain only cells and DMSO (in other words, a blank control experiment). […]

Another assay concerns H293. Nature of the assay: Cytotoxicity testing, CellTiter-Blue assay, 24 hour (FIG. 3). Format: cell-based. Particulars: 100 μM, 24 hour compound incubation. As to the method: The cytotoxicity tests were carried out in the following manner. Living cells are known to convert resazurin to the fluorescent compound resorufin. Test systems which rely upon this reaction are commercially available. One such test is known at the Cell Titer Blue Cell Viability test assay from Promega. Cell cultures for each of the identified cancer lines were obtained from ATCC and maintained in Dulbecco's Modified Eagle Medium (DMEM) supplemented with 10% fetal bovine serum (FBS) and pen/strep. As known to those skilled in the art, DMEM typically includes the components identified below.
The test method provides for incubating the cell cultures at temperatures which correspond to the range of body temperatures experienced by the patient from which the cancer cells were obtained. Typically, incubation temperatures will be between the temperatures of 36.1° C. and 37.2° C. In most cases incubation will occur at 37° C. Additionally, the cell cultures are kept under an atmosphere which mimics cell conditions of the tumor within the patient's body. In most cases, the tumor microenvironment (TME) is characterized by hypoxia (low oxygen) and may also be characterized by hypercapnia (increased CO2). Hypercapnia results from decreased blood flow which limits CO2 elimination. Restricted CO2 elimination leads to increased HCO3^− conversion to CO2 in order to neutralize lactate as altered tumor cell metabolism produces more CO2 than normal. Normal tissue averages about 5% oxygen with oxygen ranges from about 3% to 7.4%. […] In the case of CO2, normocapnic is around 5% CO2, while hypercapnic can rise to 10% CO2. Therefore, to mimic the environment of the tumor the method utilizes an incubator designed to provide the optimal gaseous environment corresponding to that of the tumor. Thus, the incubator will be capable of maintaining an atmosphere having an oxygen content in the range of […] and a CO2 in the range of 1% to 10%.
After allowing for proliferation of the cells, the cells were distributed across a plurality of test wells containing from 100 μL DMEM plus 10% FBS and allowed to attach to the surface of the test wells. Typically, the time for attachment will require about 12 hours to about 18 hours. […] Following treatment of the cells with the N-benzyl sulfonamide or control, the toxicity of the compound to the cells will be determined by addition of a luminescing agent. […] Subsequently, the fluorescence of resazurin is measured by excitation at 560 nm and recording the emission at 590 nm within an instrument configured to measure fluorescence intensity. Two commercially available systems are the BioTek Cytation 5 plate reader and the Promega Glomax Multi+detection system. […]

For the molecule `O=S(=O)(NCc1c[nH]c2ccccc12)c1ccc(Cl)cc1` [Compound 2, N-[(1H-indol-3-yl)methyl]-4-chlorobenzenesulfonamide], the “reduction in luminescence (reduced ATP) across the cell lines, compound alone” value with each cell line tested (100 μM compound alone) is recorded as “reduction in luminescence”. In the assay with each cell line tested (100 μM compound with 2-DG), the “effectiveness across the cell lines, with 2-DG” value was “effectiveness against each cell line; also recorded: remarkable effectiveness”. The “effectiveness, percent reduction in cell viability (FIG. 3)” value with H293 is “effective”.
